In PubChem BioAssay AID248 (DTP/NCI, 2004):
“And” between values parts separate entries of the source, which are not always exact repeats. Equal values may be shown once. Inconclusive results and toxic doses are left out. No stated cut-off is given here; in the data, active means T/C of 150% or more; inactive means T/C below 125%.

Test system: L1210 leukemia ip in BDF1 mice, survival T/C
Test: NCI In Vivo Anticancer Drug Screen. Data for tumor model L1210 Leukemia (intraperitoneal) in B6D2F1 (BDF1) mice
Settings: endpoint: mean survival time, higher = longer survival
Outline: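 Transplanted-tumor mice were given test agent; controls received vehicle only. Survival readings from the two groups were divided (treated over control).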

[1] = dose: 200.0 mg/kg/injection, schedule: Q01DX001 (ip), vehicle: saline
[2] = dose: 25.0 mg/kg/injection, schedule: Q01DX009 (ip), vehicle: saline
[3] = dose: 50.0 mg/kg/injection, schedule: Q01DX009 (ip), vehicle: saline

Measured: T/C

C[As](C)N
inactive: dose: 10.0 mg/kg/injection, schedule: Q01DX001 (ip), vehicle: saline 102 % of control | dose: 15.0 mg/kg/injection, schedule: Q01DX001 (ip), vehicle: saline 93 % of control | dose: 20.0 mg/kg/injection, schedule: Q01DX001 (ip), vehicle: saline 120 % of control | dose: 30.0 mg/kg/injection, schedule: Q01DX001 (ip), vehicle: saline 91 % of control | dose: 60.0 mg/kg/injection, schedule: Q01DX001 (ip), vehicle: saline 90 % of control

O=C(c1cc(C(F)(F)F)cc(C(F)(F)F)c1)N1CC1
inactive: dose: 6.25 mg/kg/injection, schedule: Q01DX009 (ip), vehicle: water 96 % of control | dose: 12.5 mg/kg/injection, schedule: Q01DX009 (ip), vehicle: water 91 % of control | dose: 25.0 mg/kg/injection, schedule: Q01DX009 (ip), vehicle: water 95 % of control | dose: 50.0 mg/kg/injection, schedule: Q01DX009 (ip), vehicle: water 93 % of control and 86 % of control | dose: 100.0 mg/kg/injection, schedule: Q01DX009 (ip), vehicle: water 88 % of control | dose: 200.0 mg/kg/injection, schedule: Q01DX009 (ip), vehicle: water 95 % of control and 89 % of control | dose: 400.0 mg/kg/injection, schedule: Q01DX009 (ip), vehicle: water 86 % of control

CCCCCCCCCC(N)=O
inactive: dose: 50.0 mg/kg/injection, schedule: Q01DX009 (ip), vehicle: Klucel (hydroxypropylcellulose) (HPC) 97 % of control | dose: 100.0 mg/kg/injection, schedule: Q01DX001 (ip), vehicle: Klucel (hydroxypropylcellulose) (HPC) 110 % of control | dose: 100.0 mg/kg/injection, schedule: Q01DX009 (ip), vehicle: Klucel (hydroxypropylcellulose) (HPC) 90 % of control | dose: 200.0 mg/kg/injection, schedule: Q01DX001 (ip), vehicle: Klucel (hydroxypropylcellulose) (HPC) 100 % of control | dose: 400.0 mg/kg/injection, schedule: Q01DX001 (ip), vehicle: Klucel (hydroxypropylcellulose) (HPC) 93 % of control

O=C(O)c1nsnc1C(=O)O
inactive: [1] 102 % of control | dose: 400.0 mg/kg/injection, schedule: Q01DX001 (ip), vehicle: saline 103 % of control

CCN(CC)CCOc1ccccc1OC
inactive: dose: 12.0 mg/kg/injection, schedule: Q01DX009 (ip), vehicle: saline 107 % of control | [2] 101 % of control | [3] 101 % of control | dose: 100.0 mg/kg/injection, schedule: Q01DX001 (ip), vehicle: saline 93 % of control | [1] 95 % of control

Cc1cccc(Cl)c1OCC(O)COc1c(C)cccc1Cl
inactive: dose: 100.0 mg/kg/injection, schedule: Q04DX002 (ip), vehicle: saline with Tween-80 92 % of control | dose: 200.0 mg/kg/injection, schedule: Q04DX002 (ip), vehicle: saline with Tween-80 95 % of control | dose: 400.0 mg/kg/injection, schedule: Q04DX002 (ip), vehicle: saline with Tween-80 95 % of control

Cn1nc([N+](=O)[O-])sc1=N
inactive: dose: 100.0 mg/kg/injection, schedule: Q04DX003 (ip), vehicle: Klucel (hydroxypropylcellulose) (HPC) 98 % of control | dose: 200.0 mg/kg/injection, schedule: Q04DX003 (ip), vehicle: Klucel (hydroxypropylcellulose) (HPC) 98 % of control | dose: 400.0 mg/kg/injection, schedule: Q04DX003 (ip), vehicle: Klucel (hydroxypropylcellulose) (HPC) 101 % of control

O=S(=O)(Nc1c(O)ccc2ccccc12)c1ccccc1
inactive: dose: 100.0 mg/kg/injection, schedule: Q01DX009 (ip), vehicle: saline with Tween-80 95 % of control | dose: 200.0 mg/kg/injection, schedule: Q01DX009 (ip), vehicle: saline with Tween-80 93 % of control | dose: 400.0 mg/kg/injection, schedule: Q01DX009 (ip), vehicle: saline with Tween-80 90 % of control

COc1cccc(NC(=S)NC2CC(C)CC(C)(C)C2)c1 (stereo not given)
inactive: dose: 100.0 mg/kg/injection, schedule: Q04DX002 (ip), vehicle: gum acacia 95 % of control | dose: 200.0 mg/kg/injection, schedule: Q04DX002 (ip), vehicle: gum acacia 98 % of control | dose: 400.0 mg/kg/injection, schedule: Q04DX002 (ip), vehicle: gum acacia 95 % of control

CC(=O)N1C(C)C1(c1ccccc1)[n+]1ccccc1 (stereo not given)
inactive: dose: 12.0 mg/kg/injection, schedule: Q04DX003 (ip), vehicle: saline 98 % of control | dose: 12.5 mg/kg/injection, schedule: Q01DX009 (ip), vehicle: saline 101 % of control | [2] 92 % of control | dose: 25.0 mg/kg/injection, schedule: Q04DX003 (ip), vehicle: saline 88 % of control | [3] 101 % of control | dose: 50.0 mg/kg/injection, schedule: Q04DX003 (ip), vehicle: saline 104 % of control

CCCC#CC(O)(C(=O)OC)c1ccccc1 (stereo not given)
inactive: dose: 100.0 mg/kg/injection, schedule: Q01DX001 (ip), vehicle: other 102 % of control | dose: 200.0 mg/kg/injection, schedule: Q01DX001 (ip), vehicle: other 103 % of control | dose: 400.0 mg/kg/injection, schedule: Q01DX001 (ip), vehicle: other 105 % of control
